Source: patent US20230095695A1, “RNAS FOR COMPLEMENT INHIBITION” (Apellis Pharmaceuticals, Inc., priority 2020, published 2023)
Oligonucleotides are written 5' to 3', each unit as a sugar letter and its base; * is a phosphorothioate linkage, no mark a phosphodiester; rarer units and linkages stand in square brackets, end groups in braces. Plain capitals give the bases only. m = 2'-O-methyl; {P} = phosphate; f = 2'-fluoro

Tested on: C3 mRNA
Experiment: Dose response experiments (DRC) of modification variants, C3 mRNA knockdown in HepG2 cells
Format: cell-based, human
Details: for IC50 / IC80: 10 concentrations from 100 nM in 6-fold dilution steps; for Max KD: DRC experiments
Experimental: HepG2 cells were obtained from ATCC (ATCC in partnership with LGC Standards, Wesel, Germany, cat. #ATCC-HB-8065) and cultured in MEM Eagle (#M2279, Sigma-Aldrich, Germany), supplemented to contain 10% fetal calf serum (#1248D, Biochrom GmbH, Berlin, Germany), 1× non-essential amino acids (#K0293; Biochrom, Berlin, Germany), 4 mM L-Glutamine (#K0283, Biochrom, Berlin, Germany) and 100 U/ml Penicillin/100 μg/ml Streptomycin (#A2213, Biochrom GmbH, Berlin, Germany) at 37° C. in an atmosphere with 5% CO2 in a humidified incubator.
siRNAs were designed and synthesized based on the nucleotide sequence of the top siRNAs in terms of activity from Examples 1 and 2 (siRNA ID: 1, 4, 9, 10, 16, and 22) with different modification patterns. 5 “variants” were designed and synthesized for each of the top siRNA nucleotide sequences, and each duplex is identified as “variant1”, “variant2”, “variant3”, variant4”, “variant5” depending on which modifications were made. siRNAs from Examples 1 and 2 (siRNA ID: 1, 4, 9, 10, 16, and 22) are identified as “variant0”.
Transfection of siRNA was carried out with Lipofectamine RNAiMax (Invitrogen/Life Technologies, Karlsruhe, Germany) according to manufacturer's instructions for reverse transfection.
Each siRNA was tested using dose response experiments (DRC) in HepG2 cells. Two additional siRNAs (siRNA ID 26 and 27), known to knockdown C3 expression, were used as positive controls.
Dose-response experiments were done with siRNA in 10 concentrations transfected in quadruplicates, starting at 100 nM in 6-fold dilutions steps down to ˜10 fM. Mock transfected cells served as negative controls.
For each well, the target mRNA level was normalized to the respective GAPDH mRNA level. The activity of a given siRNA was expressed as percent mRNA concentration of the respective target (normalized to GAPDH mRNA) in treated cells, relative to the target mRNA concentration (normalized to GAPDH mRNA) averaged across mock transfected wells (DRCs).

Substance | IC50 | IC80 | Max KD | C3 knockdown, comparison among modification variants of the same nucleotide sequence
26 (sense CAACUCACCUGUAAUAAAUUU; antisense AUUUAUUACAGGUGAGUUGUU; siRNA; sense: all phosphodiester, sugars by position not given here; antisense: all phosphodiester, 5' {P}, sugars by position not given here) [compound 26] | 6 pM | 62 pM | 86% | –
27 (sense GAGCCGUUCUCUACAAUUAUU; antisense UAAUUGUAGAGAACGGCUCUU; siRNA; sense: all phosphodiester, sugars by position not given here; antisense: all phosphodiester, 5' {P}, sugars by position not given here) [compound 27] | 4 pM | 27 pM | 89% | –
28 (sense mU*mC*fAmAmCmUfCfAfCmCmUfGmUmAmAmUfAmAmA; antisense mU*fU*mUmAmUmUmAmCmAmGmGmUmGfAmGmUmUmGmA*mU*mC; siRNA) [compound 28] | 1 pM | 711 pM | 95% | –
29 (sense fU*mC*fAmAfCmUfCmAfCmCfUmGfUmAfAmUfAmAfA; antisense mU*fU*mUfAmUfUmAfCmAfGmGfUmGfAmGfUmUfGmA*mU*mC; siRNA) [compound 29] | 979 pM | – | 68% | –
30 (sense fU*mC*fAmAfCmUfCmAfCmCfUmGfUmAfAmUfAmAfA; antisense mU*fU*mUmAmUmUmAmCmAmGmGmUmGfAmGmUmUmGmA*mU*mC; siRNA) [compound 30] | – | – | 36% | –
31 (sense fU*mC*fAmAfCmUfCmAfCmCfUmGfUmAfAmUfAmAfA; antisense mU*fU*mUmAmUfUmAmCmAmGmGmUmGfAmGfUmUmGmA*mU*mC; siRNA) [compound 31] | 343 pM | 7640 pM | 81% | –
32 (sense mU*mC*fAmAmCmUfCfAfCmCmUfGmUmAmAmUfAmAmA; antisense mU*fU*mUmAmUfUmAmCmAmGmGmUmGfAmGfUmUmGmA*mU*mC; siRNA) [compound 32] | 18 pM | 108 pM | 93% | most effective in C3 knockdown
33 (sense mU*mC*fCmAmAmGfCfCfUmUmGfGmCmUmCmAfAmUmA; antisense mU*fA*mUmUmGmAmGmCmCmAmAmGmGfCmUmUmGmGmA*mA*mC; siRNA) [compound 33] | 75 pM | 601 pM | 91% | –
34 (sense fU*mC*fCmAfAmGfCmCfUmUfGmGfCmUfCmAfAmUfA; antisense mU*fA*mUfUmGfAmGfCmCfAmAfGmGfCmUfUmGfGmA*mA*mC; siRNA) [compound 34] | 324 pM | 1640 pM | 86% | –
35 (sense fU*mC*fCmAfAmGfCmCfUmUfGmGfCmUfCmAfAmUfA; antisense mU*fA*mUmUmGmAmGmCmCmAmAmGmGfCmUmUmGmGmA*mA*mC; siRNA) [compound 35] | 622 pM | – | 55% | –
36 (sense fU*mC*fCmAfAmGfCmCfUmUfGmGfCmUfCmAfAmUfA; antisense mU*fA*mUmUmGfAmGmCmCmAmAmGmGfCmUfUmGmGmA*mA*mC; siRNA) [compound 36] | 486 pM | – | 68% | –
37 (sense mU*mC*fCmAmAmGfCfCfUmUmGfGmCmUmCmAfAmUmA; antisense mU*fA*mUmUmGfAmGmCmCmAmAmGmGfCmUfUmGmGmA*mA*mC; siRNA) [compound 37] | 168 pM | 1380 pM | 86% | –
38 (sense mA*mU*fCmGmGmAfUfCfUmUmCfAmCmCmGmUfCmAmA; antisense mU*fU*mGmAmCmGmGmUmGmAmAmGmAfUmCmCmGmAmU*mA*mG; siRNA) [compound 38] | 151 pM | 728 pM | 91% | –
39 (sense fA*mU*fCmGfGmAfUmCfUmUfCmAfCmCfGmUfCmAfA; antisense mU*fU*mGfAmCfGmGfUmGfAmAfGmAfUmCfCmGfAmU*mA*mG; siRNA) [compound 39] | 326 pM | 1660 pM | 86% | –
40 (sense fA*mU*fCmGfGmAfUmCfUmUfCmAfCmCfGmUfCmAfA; antisense mU*fU*mGmAmCmGmGmUmGmAmAmGmAfUmCmCmGmAmU*mA*mG; siRNA) [compound 40] | 468 pM | 2440 pM | 87% | –
41 (sense fA*mU*fCmGfGmAfUmCfUmUfCmAfCmCfGmUfCmAfA; antisense mU*fU*mGmAmCfGmGmUmGmAmAmGmAfUmCfCmGmAmU*mA*mG; siRNA) [compound 41] | 1400 pM | 11100 pM | 84% | –

Substance | IC50 | IC80 | Max KD | C3 knockdown, comparison among modification variants of the same nucleotide sequence
42 (sense mA*mU*fCmGmGmAfUfCfUmUmCfAmCmCmGmUfCmAmA; antisense mU*fU*mGmAmCfGmGmUmGmAmAmGmAfUmCfCmGmAmU*mA*mG; siRNA) [compound 42] | 500 pM | 2910 pM | 84% | –
43 (sense mU*mC*fAmAmCmUfUfCfCmUmCfCmUmGmCmGfAmAmA; antisense mU*fU*mUmCmGmCmAmGmGmAmGmGmAfAmGmUmUmGmA*mC*mG; siRNA) [compound 43] | 96 pM | 3220 pM | 82% | –
44 (sense fU*mC*fAmAfCmUfUmCfCmUfCmCfUmGfCmGfAmAfA; antisense mU*fU*mUfCmGfCmAfGmGfAmGfGmAfAmGfUmUfGmA*mC*mG; siRNA) [compound 44] | 386 pM | – | 76% | –
45 (sense fU*mC*fAmAfCmUfUmCfCmUfCmCfUmGfCmGfAmAfA; antisense mU*fU*mUmCmGmCmAmGmGmAmGmGmAfAmGmUmUmGmA*mC*mG; siRNA) [compound 45] | 905 pM | – | 50% | –
46 (sense fU*mC*fAmAfCmUfUmCfCmUfCmCfUmGfCmGfAmAfA; antisense mU*fU*mUmCmGfCmAmGmGmAmGmGmAfAmGfUmUmGmA*mC*mG; siRNA) [compound 46] | 540 pM | – | 63% | –
47 (sense UCAACUUCCUCCUGCGAAA; antisense UUUCGCAGGAGGAAGUUGACG; 2'-F, 2'-OMe, phosphorothioate modifications, chemistry not fully specified) [compound 47] | 55 pM | 708 pM | 83% | –
48 (sense mC*mA*fAmUmGmAfCfUfUmUmGfAmCmGmAmGfUmAmA; antisense mU*fU*mAmCmUmCmGmUmCmAmAmAmGfUmCmAmUmUmG*mG*mA; siRNA) [compound 48] | 119 pM | 8350 pM | 82% | –
49 (sense fC*mA*fAmUfGmAfCmUfUmUfGmAfCmGfAmGfUmAfA; antisense mU*fU*mAfCmUfCmGfUmCfAmAfAmGfUmCfAmUfUmG*mG*mA; siRNA) [compound 49] | – | – | 28% | –
50 (sense fC*mA*fAmUfGmAfCmUfUmUfGmAfCmGfAmGfUmAfA; antisense mU*fU*mAmCmUmCmGmUmCmAmAmAmGfUmCmAmUmUmG*mG*mA; siRNA) [compound 50] | – | – | 16% | –
51 (sense fC*mA*fAmUfGmAfCmUfUmUfGmAfCmGfAmGfUmAfA; antisense mU*fU*mAmCmUfCmGmUmCmAmAmAmGfUmCfAmUmUmG*mG*mA; siRNA) [compound 51] | – | – | 32% | –
52 (sense mC*mA*fAmUmGmAfCfUfUmUmGfAmCmGmAmGfUmAmA; antisense mU*fU*mAmCmUfCmGmUmCmAmAmAmGfUmCfAmUmUmG*mG*mA; siRNA) [compound 52] | 58 pM | 1880 pM | 85% | –
53 (sense mC*mC*fAmAmCmUfAfCfAmUmGfAmAmCmCmUfAmCmA; antisense mU*fG*mUmAmGmGmUmUmCmAmUmGmUfAmGmUmUmGmG*mC*mU; siRNA) [compound 53] | 56 pM | 510 pM | 91% | –
54 (sense fC*mC*fAmAfCmUfAmCfAmUfGmAfAmCfCmUfAmCfA; antisense mU*fG*mUfAmGfGmUfUmCfAmUfGmUfAmGfUmUfGmG*mC*mU; siRNA) [compound 54] | 290 pM | 1520 pM | 89% | –
55 (sense fC*mC*fAmAfCmUfAmCfAmUfGmAfAmCfCmUfAmCfA; antisense mU*fG*mUmAmGmGmUmUmCmAmUmGmUfAmGmUmUmGmG*mC*mU; siRNA) [compound 55] | 265 pM | 1740 pM | 89% | –
56 (sense fC*mC*fAmAfCmUfAmCfAmUfGmAfAmCfCmUfAmCfA; antisense mU*fG*mUmAmGfGmUmUmCmAmUmGmUfAmGfUmUmGmG*mC*mU; siRNA) [compound 56] | 228 pM | 1200 pM | 91% | –
57 (sense mC*mC*fAmAmCmUfAfCfAmUmGfAmAmCmCmUfAmCmA; antisense mU*fG*mUmAmGfGmUmUmCmAmUmGmUfAmGfUmUmGmG*mC*mU; siRNA) [compound 57] | 29 pM | 1380 pM | 91% | –
